# Results reported in the supplement of paper PMC10307832.
# How the values were obtained:
# Experiment in all cases: relative viability (nuclei count vs DMSO), 5 days (fraction); higher = more cells survive
# Irinotecan + Decitabine = compound: CCc1c2c(nc3ccc(OC(=O)N4CCC(N5CCCCC5)CC4)cc13)-c1cc3c(c(=O)n1C2)COC(=O)[C@]3(O)CC [Irinotecan] + Nc1ncn([C@H]2C[C@H](O)[C@@H](CO)O2)c(=O)n1 [Decitabine] (partner 2 µM)
# Outline: (§1)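 Medians of duplicate plates are given as relative viability. That measure is the nuclei count in treated wells divided by the count in vehicle wells. Counts were taken on 4× images of lung cancer cell lines in 1536-well plates, 5 days after pin-tool dosing the day after seeding with one drug alone or a fixed anchor-drug dose plus five library-drug doses (not always all listed) in √10 steps.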
# MK-8033 + Phenformin = compound: Cn1cc(-c2cnc3ccc4ccc(CS(=O)(=O)NCc5ccccn5)cc4c(=O)c3c2)cn1 [MK-8033] + N=C(N)NC(=N)NCCc1ccccc1 [Phenformin] (partner 250 µM)
# Outline: as §1
# RU-SKI 43 + Alpelisib = compound: CC[C@@H](C)CNCC(=O)N1CCC2=C([C@@H]1COC3=CC=CC(=C3)C)C=CS2 [RU-SKI 43] + Cc1nc(NC(=O)N2CCC[C@H]2C(N)=O)sc1-c1ccnc(C(C)(C)C(F)(F)F)c1 [Alpelisib] (partner 2 µM)
# Outline: as §1
# MK-8033 + Pictilisib = compound: Cn1cc(-c2cnc3ccc4ccc(CS(=O)(=O)NCc5ccccn5)cc4c(=O)c3c2)cn1 [MK-8033] + CS(=O)(=O)N1CCN(Cc2cc3nc(-c4cccc5[nH]ncc45)nc(N4CCOCC4)c3s2)CC1 [Pictilisib] (partner 1 µM)
# Outline: as §1
Cell Line,relative viability (Irinotecan + Decitabine; first compound 0.6325 µM),relative viability (Irinotecan + Decitabine; first compound 2 µM),relative viability (Irinotecan + Decitabine; first compound 6.325 µM),relative viability (Irinotecan + Decitabine; first compound 20 µM),relative viability (MK-8033 + Phenformin; first compound 0.02 µM),relative viability (MK-8033 + Phenformin; first compound 0.06325 µM),relative viability (MK-8033 + Phenformin; first compound 0.2 µM),relative viability (MK-8033 + Phenformin; first compound 0.6325 µM),relative viability (MK-8033 + Phenformin; first compound 2 µM),relative viability (RU-SKI 43 + Alpelisib; first compound 0.1 µM),relative viability (RU-SKI 43 + Alpelisib; first compound 0.3162 µM),relative viability (RU-SKI 43 + Alpelisib; first compound 1 µM),relative viability (RU-SKI 43 + Alpelisib; first compound 3.162 µM),relative viability (RU-SKI 43 + Alpelisib; first compound 10 µM),relative viability (MK-8033 + Pictilisib; first compound 0.02 µM),relative viability (MK-8033 + Pictilisib; first compound 0.06325 µM),relative viability (MK-8033 + Pictilisib; first compound 0.2 µM),relative viability (MK-8033 + Pictilisib; first compound 0.6325 µM),relative viability (MK-8033 + Pictilisib; first compound 2 µM)
NCI-H522,0.605,0.492,0.577,0.636,0.645,0.7,0.707,0.54,0.699,–,–,–,–,–,–,–,–,–,–
NCI-H358,0.183,0.193,0.154,0.0968,0.369,0.296,0.296,0.307,0.318,0.795,0.894,0.781,0.634,0.858,0.306,0.344,0.331,0.395,0.227
NCI-H1755,0.58,0.503,0.427,0.491,0.603,0.572,0.605,0.682,0.653,0.97,1.21,1.04,1.05,0.916,0.413,0.399,0.368,0.405,0.481
LCLC-103H,0.63,0.524,0.458,0.432,0.378,0.334,0.314,0.355,0.396,0.941,1.06,1.05,1.14,0.91,0.616,0.589,0.593,0.737,0.638
HOP-62,0.22,0.198,0.187,0.212,0.674,0.646,0.631,0.703,0.639,0.978,0.934,1.26,1.09,1.01,0.626,0.593,0.587,0.694,0.646
HCC-78,0.607,0.479,0.335,0.328,0.806,–,0.668,0.728,0.799,0.349,0.325,0.378,0.436,0.29,0.237,0.152,0.253,–,0.245
NCI-H650,0.246,0.213,0.168,0.091,0.441,0.445,0.464,0.437,0.47,1.14,0.981,1.12,–,1.07,0.849,0.824,0.871,0.723,0.834
NCI-H1563,–,–,–,–,0.711,0.669,0.602,0.679,0.642,0.862,0.925,0.903,0.853,0.862,0.617,0.63,0.648,0.659,0.705
ABC-1,–,0.851,0.515,0.475,0.202,0.219,0.227,0.281,0.211,1.02,1.13,0.895,0.986,1.06,0.969,0.564,0.689,0.674,0.699
Calu-6,–,–,–,–,–,–,–,–,–,0.994,1.14,0.994,1.03,0.989,0.947,0.766,0.899,0.85,0.975
EBC-1,–,–,–,–,–,–,–,–,–,0.784,0.92,0.925,0.799,0.68,0.354,0.314,0.222,0.195,0.144
NCI-H1648,0.501,0.469,0.446,0.428,–,–,–,–,–,–,–,–,–,–,–,–,–,–,–
NCI-H1623,–,–,–,–,0.578,0.538,0.618,0.507,0.619,–,–,–,–,–,–,–,–,–,–
ChaGo-K-1,0.344,0.251,0.233,0.239,0.477,0.479,0.435,0.512,0.5,–,–,–,–,–,0.717,0.652,0.654,0.713,0.615
NCI-H2342,0.732,0.789,0.68,0.436,0.55,0.529,0.585,0.594,0.591,–,–,–,–,–,–,–,–,–,–
IA-LM,–,–,–,–,–,–,–,–,–,1.02,0.795,0.902,0.91,0.694,0.356,0.273,0.293,0.286,0.289
NCI-H1650,0.322,0.296,0.276,0.207,0.412,0.285,0.38,0.441,0.399,–,–,–,–,–,0.601,0.469,0.646,0.527,0.544
NCI-H2228,–,–,–,–,0.399,0.287,0.345,0.294,0.299,0.667,0.768,1.08,0.704,0.423,0.397,0.599,0.356,0.336,0.357
SW 900,–,0.4,0.354,0.367,0.466,0.649,0.603,0.591,0.499,–,–,–,–,–,–,–,–,–,–
NCI-H1703,–,–,–,–,–,–,–,–,–,0.329,0.31,0.338,0.339,0.239,0.238,0.244,0.255,0.223,0.248
NCI-H1299,–,–,–,–,–,–,–,–,–,1.18,1.14,1.03,1.08,1.15,0.759,0.862,0.748,0.799,0.617
CAL-12T,–,–,–,–,0.56,0.518,0.444,0.697,0.545,1.06,1.53,1.44,1.39,1.25,0.515,0.323,0.339,0.436,0.388
